Data from the supplement of paper PMC10307832.

Key:
Assay in all cases: relative viability (nuclei count vs DMSO), 5 days (fraction); higher = more cells survive
KN-93 + Trametinib = compound: CN(C/C=C/C1=CC=C(C=C1)Cl)CC2=CC=CC=C2N(CCO)S(=O)(=O)C3=CC=C(C=C3)OC [KN-93] + CC(=O)Nc1cccc(-n2c(=O)n(C3CC3)c(=O)c3c(Nc4ccc(I)cc4F)n(C)c(=O)c(C)c32)c1 [Trametinib] (partner 0.02 µM)
Summary of the method: (§1)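 For relative viability, nuclei counts in treated wells were divided by those in vehicle wells. Lung cancer cell lines had been pin-tool dosed in 1536-well plates the day after seeding and cultured for 5 days, then fixed and stained in one step (final 0.05% Triton X-100, 1% formaldehyde, 1 ug/ml Hoechst) and imaged at 4×. Doses were one drug alone or a fixed anchor-drug dose plus five library-drug doses (not always all listed) in √10 steps, and values are duplicate-plate medians.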

KN-93 + Pictilisib = compound: CN(C/C=C/C1=CC=C(C=C1)Cl)CC2=CC=CC=C2N(CCO)S(=O)(=O)C3=CC=C(C=C3)OC [KN-93] + CS(=O)(=O)N1CCN(Cc2cc3nc(-c4cccc5[nH]ncc45)nc(N4CCOCC4)c3s2)CC1 [Pictilisib] (partner 1 µM)
Summary of the method: as §1

KN-93 + Crizotinib = compound: CN(C/C=C/C1=CC=C(C=C1)Cl)CC2=CC=CC=C2N(CCO)S(=O)(=O)C3=CC=C(C=C3)OC [KN-93] + C[C@@H](Oc1cc(-c2cnn(C3CCNCC3)c2)cnc1N)c1c(Cl)ccc(F)c1Cl [Crizotinib] (partner 1 µM)
Summary of the method: as §1

KN-93 + AZD7762 = compound: CN(C/C=C/C1=CC=C(C=C1)Cl)CC2=CC=CC=C2N(CCO)S(=O)(=O)C3=CC=C(C=C3)OC [KN-93] + NC(=O)Nc1cc(-c2cccc(F)c2)sc1C(=O)N[C@H]1CCCNC1 [AZD7762] (partner 0.2 µM)
Summary of the method: as §1

KN-93 + Olaparib = compound: CN(C/C=C/C1=CC=C(C=C1)Cl)CC2=CC=CC=C2N(CCO)S(=O)(=O)C3=CC=C(C=C3)OC [KN-93] + O=C(c1cc(Cc2n[nH]c(=O)c3ccccc23)ccc1F)N1CCN(C(=O)C2CC2)CC1 [Olaparib] (partner 8 µM)
Summary of the method: as §1

Row | Cell Line | relative viability (KN-93 + Trametinib; first compound 0.08 µM) | relative viability (KN-93 + Trametinib; first compound 0.253 µM) | relative viability (KN-93 + Trametinib; first compound 2.53 µM) | relative viability (KN-93 + Trametinib; first compound 8 µM) | relative viability (KN-93 + Pictilisib; first compound 0.08 µM) | relative viability (KN-93 + Pictilisib; first compound 0.253 µM) | relative viability (KN-93 + Pictilisib; first compound 2.53 µM) | relative viability (KN-93 + Pictilisib; first compound 8 µM) | relative viability (KN-93 + Crizotinib; first compound 0.08 µM) | relative viability (KN-93 + Crizotinib; first compound 0.253 µM) | relative viability (KN-93 + Crizotinib; first compound 2.53 µM) | relative viability (KN-93 + Crizotinib; first compound 8 µM) | relative viability (KN-93 + AZD7762; first compound 0.08 µM) | relative viability (KN-93 + AZD7762; first compound 0.253 µM) | relative viability (KN-93 + AZD7762; first compound 2.53 µM) | relative viability (KN-93 + AZD7762; first compound 8 µM) | relative viability (KN-93 + Olaparib; first compound 0.08 µM) | relative viability (KN-93 + Olaparib; first compound 0.253 µM) | relative viability (KN-93 + Olaparib; first compound 2.53 µM) | relative viability (KN-93 + Olaparib; first compound 8 µM)
1 | NCI-H650 | 0.933 | 1.08 | 0.998 | 0.794 | 0.906 | 0.892 | 1.06 | 0.605 | 0.866 | 0.735 | 0.772 | 0.488 | 0.984 | 0.996 | 1.23 | 0.978 | 0.425 | 0.366 | 0.368 | 0.397
2 | NCI-H1993 | 0.547 | 0.542 | 0.498 | 0.501 | 0.689 | 1.07 | 0.761 | 0.754 | 0.968 | 0.814 | 0.76 | 0.727 | 0.608 | 0.654 | 0.708 | 0.586 | 0.915 | 0.947 | 1.14 | 0.771
3 | LC-2-ad | 0.794 | 0.989 | 0.88 | 0.75 | 0.313 | 0.373 | 0.368 | 0.187 | 0.453 | 0.459 | 0.474 | 0.43 | 0.775 | 0.958 | 0.953 | 0.785 | 0.687 | 0.739 | 0.733 | 0.62
4 | H3255 | 0.643 | 0.59 | 0.671 | 0.417 | 0.422 | 0.527 | 0.492 | 0.391 | 0.995 | 0.952 | 0.48 | 0.623 | 0.878 | 0.894 | 0.989 | 0.558 | 0.519 | 0.621 | 0.523 | 0.485
5 | HCC-78 | 0.708 | 0.68 | 0.808 | 0.711 | 0.251 | 0.185 | 0.193 | 0.182 | 0.336 | 0.312 | 0.37 | 0.312 | 0.623 | 0.506 | 0.622 | 0.653 | 0.725 | 0.976 | 0.807 | 0.726
6 | HCC-827 | 0.539 | 0.546 | 0.491 | 0.426 | 1.08 | 0.982 | 1.03 | 0.986 | 0.993 | 0.996 | 0.908 | 0.778 | 0.195 | 0.159 | 0.191 | 0.186 | 0.745 | 0.556 | 0.704 | 0.608
7 | NCI-H2087 | 0.249 | 0.15 | 0.19 | 0.128 | 0.839 | 0.967 | 0.898 | 0.466 | 0.678 | 1.01 | 0.84 | 0.55 | 0.821 | 1.61 | 1.16 | 1.04 | 0.453 | 0.606 | 0.653 | 0.383
